Source: patent US8822541B2, “Use of targeted nitroxide agents in mitigating or treating radiation injury” (University of Pittsburgh—Of the Commonwealth System of …, priority 2008, dated 2014)

Key:
[1] = test system: Ercc1−/cond; K14-Cre mice; test: Photoaging after UV-B in Ercc1−/cond; K14-Cre mice; type: in vivo, mouse; conditions: 80 ug in cream daily for five days
Method: As a measure of the effect of XJB-5-131 on photoaging, Ercc1^−/cond; K14-Cre mice, which are missing ERCC1 only in the skin, were shaved, treated with a depilatory then irradiated with UV-B light to induce a sunburn (500 J/m^2, the median erythemal dose). Subsequently, the mice were treated with XJB-5-131 (80 ug) emulsified in a cream daily for five days.

[2] = test system: rat ileal mucosa; test: Intestinal mucosal permeability assay (FD4) after hemorrhagic shock; type: in vivo; conditions: intraluminal
Method: Intestinal mucosal permeability assay. Animals were allowed access to water but not food for 24 h prior to the experiment in order to decrease the volume of intestinal contents. The rats were instrumented as described above. A midline laparotomy was performed and the small intestine was exteriorized from the duodenojejunal junction to the ileocecal valve. A small incision was made on the antimesenteric aspect of the proximal small intestine and saline solution (1.5 ml) was injected. The bowel was ligated proximally and distally to the incision with 4-0 silk (Look, Reading, Pa.).
The small intestine was compressed gently in aboral direction along its length to displace intestinal contents into the colon. Starting 5 cm from the ileocecal valve, the ileum was partitioned into six contiguous water-tight segments. […]
The remaining four other segments were injected with solutions containing either 4-hydroxy-2,2,6,6-tetramethylpiperidine-N-oxyl (TEMPOL) or one of the Gramicidin S-based compounds. Four different final concentrations of TEMPOL in normal saline were evaluated: 0.1, 1, 5 and 20 mM. […]
Fluorescence of FD4 in the solution inside the beaker and within each gut sac was measured using a fluorescence spectrophotometer (LS-50, Perkin-Elmer, Palo Alto, Calif.) at an excitation wavelength of 492 nm and an emission wavelength of 515 nm. […]

[3] = test system: Sprague Dawley rats; test: Survival of rats subjected to volume-controlled hemorrhagic shock; type: in vivo, rat; conditions: 2 μmol/kg iv
Method: Survival of rats subjected to volume-controlled hemorrhagic shock. Following surgical preparation and a 5-min stabilization period to obtain baseline readings, rats were subjected to hemorrhagic shock. Bleeding was carried out in 2 phases.
Initially, 21 ml/kg of blood was withdrawn over 20 min. Immediately thereafter, an additional 12.5 ml/kg of blood was withdrawn over 40 min. Thus, hemorrhage occurred over a total period of 60 min and the total blood loss was 33.5 ml/kg or approximately 55% of the total blood volume. Rats were randomly assigned to receive XJB-5-131 (2 μmol/kg) or its vehicle, a 33:67 (v/v) mixture of DMSO and normal saline. XJB-5-131 solution or vehicle alone was administered as a continuous infusion during the last 20 min of the hemorrhage period. The total volume of fluid infused was 2.8 ml/kg and it was administered intravenously using a syringe pump (KD100, KD Scientific, New Hope, Pa.). […] At the end of the 6 hour observation period, animals that were still alive were euthanized with an overdose of KCl.
Blood pressure was recorded continuously using a commercial strain-gauge transducer, amplifier, and monitor (S90603a, SpaceLabs, Redmond, Wash.). Blood samples (0.5 ml) were collected from the jugular vein at the beginning of hemorrhage (baseline), at the end of hemorrhage (shock) and at the end of resuscitation (resuscitation). Hemoglobin concentration [Hb], lactate and glucose concentration were determined using an auto-analyzer (Model ABL 725, Radiometer Copenhagen, Westlake, Ohio).
A total of sixteen rats were tested in this study. Rats were treated with 2.8 ml/kg of vehicle or the same volume of XJB-5-131 solution during the final 20 min of the bleeding protocol. The total dose of XJB-5-131 infused was 2 μmol/kg. Following profound hemorrhagic shock consistent with the protocol described above for the prior studies, thirteen survived for at least 60 min and received the full dose of either XJB-5-131 solution or the vehicle, a 33:67 (v/v) mixture of DMSO and normal saline. […] None of the between-group differences were statistically significant.

[4] = test system: mouse embryonic cells; test: EPR-based analysis of integration and reduction of nitroxide Gramicidin S-peptidyl conjugates in MECs; type: cell-based; conditions: following incubation with solutions of the compounds
Method: Electron paramagnetic resonance (“EPR”) spectroscopy was used to monitor the cellular delivery of compounds 5a and 5b shown in FIG. 3 in mouse embryonic cells (“MEC”).
The following conditions were used during the EPR-based analysis of the integration and reduction of nitroxide Gramicidin S-peptidyl conjugates in MECs. The MECs at a concentration of 10 million MECs per mL were incubated with 10 μM of 4-AT and compound 5a, respectively. Recovered nitroxide radicals in whole cells, mitochondria, and cytosol fractions were resuspended in phosphate buffer saline (“PBS”) in the presence and absence, respectively, of 2 μM K3Fe(CN)6.

In the case of CC(C)C[C@@H](/C=C/[C@H](Cc1ccccc1)C(=O)N1CCC[C@H]1C(=O)N[C@H](C(=O)N[C@@H](CCCNC(=O)OCc1ccccc1)C(=O)NC1CC(C)(C)N([O])C(C)(C)C1)C(C)C)NC(=O)OC(C)(C)C [XJB-5-131], the “appearance of UV-B irradiated skin” value [1] is reported as “much more smooth and healthy”, the “hemorrhagic shock-induced mucosal hyperpermeability relative to control” value [2] is reported as “approximately 60 % of the control value” and the “potency relative to TEMPOL” value [2] is reported as ~1000 fold. The “rats surviving longer than 3 hours after completion of the hemorrhage protocol” value [3] was “Three of the six”, the “rats surviving the whole 6 hour post-bleeding observation period” value [3] was “one rat” and the “survival time versus vehicle” value ([3]; no resuscitation) was “survived significantly longer”. For the same compound, the “concentration in the mitochondria of cultured mouse embryonic cells” value [4] was “concentrated in the mitochondria”.
